Patent US12404267B2, “Solid state forms of n-[2-(2-{4-[2-(6,7-dimethoxy-3,4-dihydro-2(1H)-isoquinolinyl)ethyl]phenyl}-2H-tetrazol-5-yl)-4,5-dimethoxyphenyl]-4-oxo-4H-chromene-2-carboxamide and of its mesylate salt” (ASSIA CHEMICAL INDUSTRIES LTD., priority 2019, dated 2025)
Structures can show the parent of a compound that is named as a salt.

Test: Solubility of solid state forms of Encequidar mesylate
Format: physicochemical
Settings: compared with amorphous Encequidar mesylate; no medium or method printed

Compound: COc1cc2c(cc1OC)CN(CCc1ccc(-n3nnc(-c4cc(OC)c(OC)cc4NC(=O)c4cc(=O)c5ccccc5o4)n3)cc1)CC2 [Form B of Encequidar mesylate]
- solubility: surprisingly greater than the solubility of amorphous Encequidar mesylate
